How the values were obtained:
Format in all cases: cell-based
[1] = tested on: Coriolus versicolor(L. ex Fr.) Quélet, FFPRI 1030; test: Preserving activity for wood preservatives (weight loss of treated wood); details: beech sapwood specimens, 110 ± 10 g/m² preservative applied (0.5% xylene solution per table note), eight weeks at 26 ± 2 °C; lower = higher preserving activity
Description: (§1) This test was conducted according to Specification No.1 of Japan Wood Preserving Association, enacted in 1979, amended in 1989 and titled "Test methods of preserving activity for wood preservatives used in the coating, spraying and dipping treatment".
(§2) • ① Tyromyces palustris (Ber. et Curt.) Murr., FFPRI 0507 --"Ouzuratake" • ② Coriolus versicolor(L. ex Fr.) Quélet, FFPRI 1030 --"Kawaratake"
(§3) These two fungi are classified as wood rot fungi.
(§4) Culture media comprised culture jars (cylindrical jars of bottom diameter 8-9 cm, opening diameter 6-7 cm and height 15-18 cm), in which quartz sand of 250 g (the size of which corresponds to 20-30 mesh) was put first, and then the solution of 70 ml containing 2.0 % malt extracts and 1.0 % peptone was introduced, over which chips of the beech or other broadleaf tree were spread at about 2 mm thickness, and then sterilized at 120 °C for 30 minutes in the wet heated sterilizer.
(§5) Fungi were cultured at 26 ± 2 °C with shaking using the culture solution of 2.0 % malt extracts and 1.0 % peptone. After sufficient breeding was obtained, the fungi solution of about 3 ml was spread all over the culture medium, and then the fungi were cultured at 26 ± 2 °C with the relative humidity of over 70 %. After 10-15 days when the fungi layer sufficiently covered the culture medium, the fungi were served for the tests.
(§6) Wood specimens were the sapwood of intact cedar and beech, the dimension of which was 5 mm thick, 20 mm wide and 40 mm long. The grain face was of 20 mm width and 40 mm length. The side faces were treated with cold-setting epoxy resin.
(§7) The antimicrobial operation was performed with specifying types of fungi for corresponding type of trees. The combinations were as follows: Cedar----Tyromyces palustris ("Ouzuratake") Beech----Coriolus versicolor ("Kawaratake")
(§8) The test specimens were of two types, treated and untreated specimens, respectively.
(§9) The treated specimens referred to the wood specimens coated by brushing, spraying or dipping with wood preservatives. The amount of applied preservatives was 110 ± 10 g/m².
(§10) The amount of applied preservatives for each test specimen was calculated by the following equation:
(§11) The amount of applied preservatives (g/m²)=(W₁-W₂)/A wherein W₁ : weight of the test specimen after absorption(g), W₂ : weight of the test specimen before absorption(g) and A: surface area of test specimen except both butt surfaces (m²)
(§12) 2-7-1 The test specimens prepared in the previous section were dried at 60 ± 2 °C with a recirculating dryer for 48 hours, and were allowed to stand in a desiccator for about 30 minutes, and then the weight (W₃) was measured to an accuracy of 0.01 g.
(§13) 2-7-2 Three of each treated and untreated specimens were assembled in the Teflon casing. After sterilizing, the two assemblies were put on their 40 × 5 mm face on the fungi layer in the separate jar. They were kept at 26 ± 2 °C under the relative humidity of over 70 % for eight weeks.
(§14) 2-7-3 After the eight weeks had elapsed, the test specimens were taken out, and mycelia and other attachments of them were removed neatly. After air-drying for 24 hours, the test specimens were dried at 60 ± 2 °C in a recirculating dryer for 48 hours, and were allowed to stand in a desiccator for about 30 minutes, and then the weight (W₄) was measured to an accuracy of 0.01 g.
(§15) The test results were presented by the ratio of average weight loss of test specimens due to antimicrobial operation. The standard deviation and coefficient of variation were also determined. The ratio of weight loss for each test specimen was calculated by the following equation, and its average was also determined: The ratio of weight loss(%) = (W₃ - W₄) / W₃ × 100 [formula] . Lower value of the ratio of weight loss corresponds to higher wood preserving activity. […]

[2] = tested on: Tyromyces palustris (Ber. et Curt.) Murr., FFPRI 0507; test: as above; details: cedar sapwood specimens, 110 ± 10 g/m² preservative applied (0.5% xylene solution per table note), eight weeks at 26 ± 2 °C; lower = higher preserving activity
Description: as §1, §2, §3, §4, §5, §6, §7, §8, §9, §10, §11, §12, §13, §14, §15

[3] = tested on: Penicillium funiculosum Thom IFO 6345; test: Fungicide activity for wood fungicide (rating of fungi growth on treated wood); details: beech specimens dipped 3 min in fungicide solution, 4 weeks culture; rating 0 (no growth) to 3; mean of 6 specimens
Description: (§16) This test was conducted according to Specification No.2 of Japan Wood Preserving Association, enacted in 1979 and titled "Test methods of fungicide activity for wood fungicide".
(§17) • ① Aspergillus niger van Tieghem IFO 6341 = ATCC 6275 • ② Penicillium funiculosum Thom (formerly : Penicillium luteum Zukal) IFO 6345 = ATCC 9644 • ③ Rhizopus javanicus Takeda (formerly : Rhizopus nigricans Ehrenberg S.N. 32) IFO 6354 • ④ Aureobasidium pullulans (de Bary) Arnaud IFO 6353 = IAM (H. Iizuka, F-24) • ⑤ Gliocladium virens Miller, Gidden & Fosteb IFO 6355 = ATCC 9645 (formerly : Trichoderma viride, T.I.)
(§18) The fungi ① , ② , ③ and ⑤ are classified as fungi imperfecti, and the fungus ④ as blue stain fungus.
(§19) The Culture medium comprised the potato-sap agar culture medium (specified in the Japan Industrial Standard (JIS) Z 2911- 1960) of 50 ml, put in the conical flask of 100 ml, sterilized by steam at 1.4-1.6 kgf/cm² .G (137.2-156.8 KPa) for 30 minutes.
(§20) The fungi to be used were inoculated into the culture medium specified in the previous section and were cultured at 26 ± 2 °C under the relative humidity of 70-80 % for two weeks.
(§21) The potato sap of 50 ml, sterilized, cooled to room temperature and to which dioctyl sodium sulfosuccinate, a wetting agent, was added so as to become 0.005 %, was dropped to the fully breeding fungi layer, and was agitated with a platinum spatula in such a way that the spore was torn off. The resulting liquid filtered by sterilized gauze was the spore suspension.
(§22) 3-5-1 A Petri dish measured 90-100 mm in diameter and 20 mm in height.
(§23) 3-5-2 Agar liquid (which has no nutrients) of 2 % sterilized by steam was dropped onto the Petri dish sterilized by dry heat, and then was solidified.
(§24) 3-5-3 Three mm diameter sterilized glass bars or plastic nets made of polypropylene, etc. were placed to prevent the test specimens from touching with agar directly.
(§25) 3-6-1 The type of trees for wood specimens was beech. The cross section was of grain face, and the dimension was 20 mm wide 3 mm thick and 50 mm long.
(§26) 3-6-2 Wood specimens were supplied with nutrients in such a way that they were dipped into the potato-sap (the one in the section 3-2, but agar was not added) for 3 minutes.
(§27) 3-6-3 Nutrient-supplied wood specimens, after drying at 60 °C, were used for testing immediately. They were temporarily stored at 0 °C, but they were served to tests as soon as possible.
(§28) The test specimens were of two types, treated and untreated speciments. The treated specimens referred to the one treated with fungicide. The untreated specimens were of two types, the one really untreated and the other treated with solvent only.
(§29) 3-7-2-1 Nutrients-supplied wood specimens were dried at 60 ± 2 °C, and then their weights (W₀) were measured. Test specimens of 10-20 pieces were piled up in a one liter beaker in such a way that two specimens constant space apart from each other were alternately put on the other two specimens also constant space apart from each other. On the top of the two specimens, a weight was placed. Through the test specimens thus arranged, the fungicide solution was introduced. The level of the fungicide solution was one centimeter above the top specimens. The test specimens were dipped for three minutes after the fungicide solution introduction.
(§30) After finishing dipping, the test specimens were wiped softly, and then the weights (W₁) were measured immediately. As control experiment, the same procedure as the above was done using solvent without fungicide.
(§31) 3-7-2-2 The amounts of solution pick-up and fungicide pick-up were calculated with the following equations: The amount of solution absorption: RL = W₁ - W₀ [formula] The amount of fungicide absorption: Rc = RL × fungicide concentration [formula] 3-7-2-3 Wood specimens treated were placed without contacting each other, then were air-dried for two days, and then served as the treated test specimens. […]

[4] = tested on: Aureobasidium pullulans (de Bary) Arnaud IFO 6353; test: as above; details: beech specimens dipped 3 min in fungicide solution, 4 weeks culture; rating 0 (no growth) to 3; mean of 6 specimens
Description: as §16, §17, §18, §19, §20, §21, §22, §23, §24, §25, §26, §27, §28, §29, §30, §31

[5] = tested on: Gliocladium virens Miller, Gidden & Fosteb IFO 6355; test: as above; details: beech specimens dipped 3 min in fungicide solution, 4 weeks culture; rating 0 (no growth) to 3; mean of 6 specimens
Description: as §16, §17, §18, §19, §20, §21, §22, §23, §24, §25, §26, §27, §28, §29, §30, §31

[6] = tested on: Rhizopus javanicus Takeda IFO 6354; test: as above; details: beech specimens dipped 3 min in fungicide solution, 4 weeks culture; rating 0 (no growth) to 3; mean of 6 specimens
Description: as §16, §17, §18, §19, §20, §21, §22, §23, §24, §25, §26, §27, §28, §29, §30, §31

[7] = tested on: Aspergillus niger van Tieghem IFO 6341; test: as above; details: beech specimens dipped 3 min in fungicide solution, 4 weeks culture; rating 0 (no growth) to 3; mean of 6 specimens
Description: as §16, §17, §18, §19, §20, §21, §22, §23, §24, §25, §26, §27, §28, §29, §30, §31

[8] = tested on: Aspergillus Niger (IFO 6341), Penicillium funiculosum (IFO 6345), Rhizopus javanicus (IFO 6354), Aureobasidium pullulans (IFO 6353), Gliocladium virens (IFO …); test: Fungicide activity for wood fungicide, sum of average ratings and damage value over the five fungi
Description: as §16, §17, §18, §19, §20, §21, §22, §23, §24, §25, §26, §27, §28, §29, §30, §31

CCCCNC(=O)OCC#CI [R, I-C≡CCH₂O-CO-NH(CH₂)₃CH₃, reference compound]
Ratio of weight loss (%), C. versicolor [1]: 6.4% | Ratio of weight loss (%), T. palustris [2]: 1.3% | Average rating value, A₂ : Penicillium funiculosum (IFO 6345) [3]: 0.0 | Average rating value, A₄ : Aureobasidium pullulans (IFO 6353) [4]: 0.0 | Average rating value, A₅ : Gliocladium virens (IFO 6355) [5]: 0.0 | Average rating value, A₃ : Rhizopus javanicus (IFO 6354) [6]: 2.0 | Average rating value, A₁ : Aspergillus Niger (IFO 6341) [7]: 0.0 | damage value ([8]; D = S₁ / S₀ × 100, untreated 100.0, lower = higher fungicide activity): 13.3 | Sum (of average rating values A₁ to A₅) ([8]; S = A₁ + A₂ + A₃ + A₄ + A₅, untreated 15.0): 2.0

Source: patent EP0519427A2, “N-substituted-3-iodopropiolamide, production and use thereof” (priority 1991, dated 1992)
